From ChEMBL document CHEMBL1131720, “Phosphofurylalanine, a stable analog of phosphohistidine” (Bioorg Med Chem Lett, 1999)

Tests used:
Sus scrofa = species: Sus scrofa; assay: Kinetic resolution using pig liver esterase, 240 U.mL e-1 at 48 hr expressed as percent ee unreacted; format: ADME, organism-based; conditions: in vivo
Equus caballus = species: Equus caballus; assay: Kinetic resolution using horse liver esterase, 3 U.mL e-1 at 48 hr expressed as percent ee unreacted; format: ADME, organism-based; conditions: in vivo
[1] = Kinetic resolution using papain, 170 U.mL e-1 at 24 hr expressed as percent ee unreacted; format: ADME
[2] = Kinetic resolution using alpha-chymotrypsin, 375 U.mL e-1 at 72 hr expressed as percent ee unreacted; format: ADME

Unreacted drug (Sus scrofa) [%] | Unreacted drug (Equus caballus) [%] | Unreacted drug [1] [%] | Unreacted drug [2] [%] | SMILES
60 | 50 | 75 |  | CCOP(=O)(OCC)c1coc(C[C@H](NC(=O)OC(C)(C)C)C(=O)O)c1
70 | 60 | > 96 | 0 | CCOC(=O)[C@@H](Cc1cc(P(=O)(OCC)OCC)co1)NC(=O)OC(C)(C)C
